Measurements taken from patent US10442788B2, “Hepatitis B antiviral agents” (ENANTA PHARMACEUTICALS, INC., priority 2015, dated 2019).

Legend:
HBV = assay: HepAD38 antiviral assay: reduction of viral product accumulation (virion DNA by qPCR, HBsAg or HBeAg by ELISA); format: cell-based; conditions: Hepatitis B virus, 120 h; HepAD38 cells, five days after compound addition; 50% reduction of viral product accumulation relative to no drug controls; read-out: HepAD38 EC50
Method in brief: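 Tetracycline-washed HepAD38 cells treated with compound (DMSO diluted 1:200) for 5 days, or 8 days with media and compound refreshed on d2 and d5. Virion DNA from lysates quantified by qPCR; HBsAg or HBeAg by ELISA. EC50 is the concentration giving 50% reduction versus no-drug controls, reported as ranges A<1 μM, B 1-10 μM, C>10 μM.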

[1] = Compound toxicity, ATPLite total ATP levels; format: cell-based; conditions: human, HepAD38 cells; 15,000 cells/well, three days after compound addition; 50% reduction of total ATP levels relative to no drug controls
Description: Methods: HepAD38 cells are maintained as previously reported (Ladner et al, Antimicrob. Agents Chemother. 1997, […], 1715). Briefly, cells are passaged upon attaining confluency in DMEM/F12 media in the presence of 10% FBS, Penn/Strep, 250 μg/mL G418, and 1 ug/ml tetracycline. Novel compounds are screened by first washing cells three times with PBS to remove tetracycline, and plating in 96 well plates at 35,000 cells/well. Compounds dissolved in DMSO are then diluted 1:200 into wells containing cells. Five days after compound addition, material is harvested for analysis. For an extended 8 day analysis, cells are plated and treated as described above, but media and compound are refreshed on d2 and d5 post initial treatment.
Compound toxicity is evaluated by seeding cells at 15,000 cells/well and treating with compound as described above. Three days after compound addition, cells are treated with ATPLite reagent and compound concentrations that reduce total ATP levels in wells by 50% relative to no drug controls (CC50) are reported; CC50 ranges are as follows: A>30 μM; B 10-30 μM; C<10 μM.

Compound	EC50 (HBV) [µM]	CC50 at 3 days [1] [µM]
O=S(=O)(c1cc(-c2ncc(-c3ccc(F)c(F)c3)o2)ccc1Cl)N1CCC(O)CC1 [Example 26]	> 10	> 30
N#Cc1cc(-c2cc(-c3ccc(Cl)c(S(=O)(=O)N4CCC(O)CC4)c3)n[nH]2)ccc1F [Example 27]	1 to 10	> 30
C#Cc1cc(-c2cc(-c3ccc(Cl)c(S(=O)(=O)N4CCC(O)CC4)c3)n[nH]2)ccc1F [Example 28]	< 1	< 10
O=S(=O)(c1cc(-c2cc(-c3ccc(F)c(Cl)c3)[nH]n2)ccc1Cl)N1CCC(O)CC1 [Example 29]	< 1	< 10
O=S(=O)(c1cc(-c2nc(-c3cc(F)c(F)c(F)c3)c[nH]2)ccc1Cl)N1CCC(O)CC1 [Example 30]	1 to 10	10 to 30
O=C1CCN(S(=O)(=O)c2cc(-c3ncc(-c4ccc(F)c(Br)c4)[nH]3)ccc2Cl)CC1 [Example 31]	1 to 10	10 to 30
CC1(O)CCN(S(=O)(=O)c2cc(-c3ncc(-c4ccc(F)c(Br)c4)[nH]3)ccc2Cl)CC1 [Example 32]	1 to 10	10 to 30
O=S(=O)(c1cc(-c2nc(-c3ccccn3)c[nH]2)ccc1Cl)N1CCC(O)CC1 [Example 33]	> 10	10 to 30
CC(=O)OC1CCN(S(=O)(=O)c2cc(-c3nc(-c4ccc(F)c(Br)c4)c[nH]3)ccc2Cl)CC1 [Example 35]	1 to 10	10 to 30
COC(=O)[C@@H]1CCCN1S(=O)(=O)c1cc(-c2ncc(-c3ccc(F)c(Br)c3)[nH]2)ccc1Cl [Example 36]	> 10	> 30
O=S(=O)(c1cc(-c2ncc(-c3ccc(F)c(Br)c3)[nH]2)ccc1Cl)N1CCCCC1 [Example 37]	< 1	< 10
O=S(=O)(NCCO)c1cc(-c2ncc(-c3ccc(F)c(Br)c3)[nH]2)ccc1Cl [Example 38]	< 1	10 to 30
COC1CCN(S(=O)(=O)c2cc(-c3ncc(-c4ccc(F)c(Br)c4)[nH]3)ccc2Cl)CC1 [Example 39]	< 1	10 to 30
O=S(=O)(c1cc(-c2nc(-c3ccc(F)cc3)c[nH]2)ccc1Cl)N1CCC(O)CC1 [Example 40]	1 to 10	> 30
CC(C)OC(=O)[C@@H](C)NS(=O)(=O)c1cc(-c2ncc(-c3ccc(F)c(Br)c3)[nH]2)ccc1Cl [Example 41]	1 to 10	> 30
O=S(=O)(c1cc(-c2ncc(-c3ccc(F)c(Br)c3)[nH]2)ccc1Cl)N1CCOCC1 [Example 42]	< 1	10 to 30
O=S(=O)(NCCCO)c1cc(-c2ncc(-c3ccc(F)c(Br)c3)[nH]2)ccc1Cl [Example 43]	< 1	10 to 30
O=S(=O)(c1cc(-c2ncc(-c3ccc(F)c(Br)c3)[nH]2)ccc1Cl)N1CCC(F)CC1 [Example 44]	< 1	< 10
Cc1cc(-c2cnc(-c3ccc(Cl)c(S(=O)(=O)N4CCC(O)CC4)c3)[nH]2)ccc1F [Example 45]	< 1	> 30
COc1cc(-c2cnc(-c3ccc(Cl)c(S(=O)(=O)N4CCC(O)CC4)c3)[nH]2)ccc1F [Example 46]	< 1	> 30
N#Cc1ccc(-c2cnc(-c3ccc(Cl)c(S(=O)(=O)N4CCC(O)CC4)c3)[nH]2)cc1F [Example 47]	< 1	> 30
O=S(=O)(c1cc(-c2ncc(-c3ccc(F)c(C4CC4)c3)[nH]2)ccc1Cl)N1CCC(O)CC1 [Example 48]	< 1	10 to 30
O=S(=O)(c1cc(-c2ncc(-c3cccc(F)c3)[nH]2)ccc1Cl)N1CCC(O)CC1 [Example 49]	< 1	10 to 30
O=S(=O)(c1cc(-c2ncc(-c3cccnc3)[nH]2)ccc1Cl)N1CCC(O)CC1 [Example 50]	1 to 10	> 30
O=S(=O)(c1cc(-c2nc(-c3ccncc3)c[nH]2)ccc1Cl)N1CCC(O)CC1 [Example 51]	> 10	> 30
O=S(=O)(c1cc(-c2nc(-c3ccc(Cl)cc3)c[nH]2)ccc1Cl)N1CCC(O)CC1 [Example 52]	< 1	10 to 30
O=S(=O)(c1cc(-c2nc(-c3cccc(Cl)c3)c[nH]2)ccc1Cl)N1CCC(O)CC1 [Example 53]	< 1	10 to 30
O=S(=O)(c1cc(-c2nc(-c3cccc(Br)c3)c[nH]2)ccc1Cl)N1CCC(O)CC1 [Example 54]	< 1	> 30

Compound	EC50 (HBV) [µM]	CC50 at 3 days [1] [µM]
O=S(=O)(c1cc(-c2nc(-c3ccc(F)c(C(F)(F)F)c3)c[nH]2)ccc1Cl)N1CCC(O)CC1 [Example 55]	< 1	10 to 30
CC(C)(C)OC(=O)NCCCNS(=O)(=O)c1cc(-c2ncc(-c3ccc(F)c(Br)c3)[nH]2)ccc1Cl [Example 56]	< 1	< 10
CN(C)S(=O)(=O)c1cc(-c2ncc(-c3ccc(F)c(Br)c3)[nH]2)ccc1Cl [Example 57]	1 to 10	10 to 30
COC(=O)[C@H]1CCN(S(=O)(=O)c2cc(-c3ncc(-c4ccc(F)c(Br)c4)[nH]3)ccc2Cl)C1 [Example 58]	1 to 10	> 30
O=C1CCN(S(=O)(=O)c2cc(-c3nc(-c4ccc(Br)c(F)c4)c[nH]3)ccc2Cl)CC1 [Example 59]	< 1	10 to 30
COC(=O)[C@@H](NS(=O)(=O)c1cc(-c2ncc(-c3ccc(F)c(Br)c3)[nH]2)ccc1Cl)C(C)C [Example 60]	1 to 10	10 to 30
NCCCNS(=O)(=O)c1cc(-c2ncc(-c3ccc(F)c(Br)c3)[nH]2)ccc1Cl [Example 61]	1 to 10	< 10
COC(=O)NCCCNS(=O)(=O)c1cc(-c2ncc(-c3ccc(F)c(Br)c3)[nH]2)ccc1Cl [Example 62]	1 to 10	10 to 30
COC(=O)NCCCNS(=O)(=O)c1cc(-c2ncc(-c3ccc(F)c(Br)c3)n2C(=O)OC)ccc1Cl [Example 63]	1 to 10	10 to 30
O=C1CN(S(=O)(=O)c2cc(-c3ncc(-c4ccc(F)c(Br)c4)[nH]3)ccc2Cl)CCN1 [Example 64]	1 to 10	10 to 30
O=S(=O)(c1cc(-c2ncc(-c3ccc(F)c(O)c3)[nH]2)ccc1Cl)N1CCC(O)CC1 [Example 65]	> 10	> 30
O=S(=O)(c1cc(-c2nc(-c3ccc(Br)cc3)c[nH]2)ccc1Cl)N1CCC(O)CC1 [Example 66]	< 1	10 to 30
Cc1cc(F)ccc1-c1c[nH]c(-c2ccc(Cl)c(S(=O)(=O)N3CCC(O)CC3)c2)n1 [Example 67]	1 to 10	10 to 30
O=S(=O)(c1cc(-c2nc(-c3ccccc3F)c[nH]2)ccc1Cl)N1CCC(O)CC1 [Example 68]	1 to 10	> 30
O=S(=O)(c1cc(-c2nc(-c3ccsc3)c[nH]2)ccc1Cl)N1CCC(O)CC1 [Example 69]	1 to 10	> 30
O=S(=O)(c1cc(-c2nc(-c3ccc(Cl)c(Cl)c3)c[nH]2)ccc1Cl)N1CCC(O)CC1 [Example 71]	< 1	10 to 30
O=S(=O)(c1cc(-c2nc(-c3ccc(Cl)c(F)c3)c[nH]2)ccc1Cl)N1CCC(O)CC1 [Example 72]	< 1	10 to 30
Cc1ccc(-c2c[nH]c(-c3ccc(Cl)c(S(=O)(=O)N4CCC(O)CC4)c3)n2)cc1F [Example 73]	1 to 10	> 30
O=S(=O)(c1cc(-c2nc(-c3ccc(Br)c(Cl)c3)c[nH]2)ccc1Cl)N1CCC(O)CC1 [Example 82]	< 1	< 10
O=S(=O)(c1cc(-c2nc(-c3ccc(C(F)(F)F)c(F)c3)c[nH]2)ccc1Cl)N1CCC(O)CC1 [Example 83]	< 1	< 10
O=S(=O)(c1cc(-c2nc(-c3ccc(Cl)c(Br)c3)c[nH]2)ccc1Cl)N1CCC(O)CC1 [Example 87]	< 1	< 10
Cc1cccc(-c2c[nH]c(-c3ccc(Cl)c(S(=O)(=O)N4CCC(O)CC4)c3)n2)c1 [Example 91]	1 to 10	> 30
N#Cc1cccc(-c2c[nH]c(-c3ccc(Cl)c(S(=O)(=O)N4CCC(O)CC4)c3)n2)c1 [Example 92]	1 to 10	> 30
COc1cccc(-c2c[nH]c(-c3ccc(Cl)c(S(=O)(=O)N4CCC(O)CC4)c3)n2)c1 [Example 93]	> 10	> 30
O=S(=O)(c1cc(-c2nc(-c3cccc(C(F)(F)F)c3)c[nH]2)ccc1Cl)N1CCC(O)CC1 [Example 94]	< 1	10 to 30
O=S(=O)(c1cc(-c2nc(-c3cccc(OC(F)(F)F)c3)c[nH]2)ccc1Cl)N1CCC(O)CC1 [Example 95]	1 to 10	> 30
O=S(=O)(c1cc(-c2nc(-c3ccc(C4CC4)cc3)c[nH]2)ccc1Cl)N1CCC(O)CC1 [Example 101]	< 1	< 10
